Reference: ChEMBL document CHEMBL4304811, “Development of a Water-Soluble Indolylmaleimide Derivative IM-93 Showing Dual Inhibition of Ferroptosis and NETosis” (ACS Med Chem Lett, 2019)

Columns and labels:
[1] = test system: Tyrosine-protein kinase ABL1 (Homo sapiens), P00519 [Q252H]; assay: Binding affinity to human phosphorylated ABL1 Q252H mutant expressed in mammalian expression system assessed as residual binding level at 10 uM by Kinomescan method relative to control
[2] = biological target: Tyrosine-protein kinase ABL1 (Homo sapiens) (UniProt P00519); assay: Binding affinity to wild-type human phosphorylated ABL1 (S229 to K512 residues) expressed in mammalian expression system assessed as residual binding level at 10 uM by Kinomescan method relative to control
[3] = biological target: RAC-alpha serine/threonine-protein kinase (Homo sapiens) (UniProt P31749); assay: Binding affinity to wild-type human partial length AKT1 expressed in bacterial expression system assessed as residual binding level at 10 uM by Kinomescan method relative to control
Sequence of RAC-alpha serine/threonine-protein kinase (Homo sapiens) (P31749 whole entry, the tested form may be a part): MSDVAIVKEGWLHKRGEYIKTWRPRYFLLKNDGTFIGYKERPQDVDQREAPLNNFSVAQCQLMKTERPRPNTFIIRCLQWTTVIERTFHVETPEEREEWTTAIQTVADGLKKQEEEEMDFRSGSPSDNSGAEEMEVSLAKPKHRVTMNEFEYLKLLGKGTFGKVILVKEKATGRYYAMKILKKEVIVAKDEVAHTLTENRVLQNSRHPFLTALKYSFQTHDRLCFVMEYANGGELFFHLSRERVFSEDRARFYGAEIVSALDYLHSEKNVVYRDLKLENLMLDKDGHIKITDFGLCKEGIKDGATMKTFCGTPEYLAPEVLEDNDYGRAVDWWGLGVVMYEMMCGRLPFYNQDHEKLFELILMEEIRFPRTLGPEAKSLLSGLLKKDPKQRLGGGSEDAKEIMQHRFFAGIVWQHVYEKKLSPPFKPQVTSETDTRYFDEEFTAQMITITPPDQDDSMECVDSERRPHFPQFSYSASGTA

[4] = test system: ALK tyrosine kinase receptor (Homo sapiens), Q9UM73 [C1156Y]; assay: Binding affinity to […] human partial length ALK C1156Y mutant (I1088 to E1409 residues) expressed in mammalian expression system assessed as residual binding level at 10 uM by Kinomescan method relative to control
[5] = biological target: Bone morphogenetic protein receptor type-1B (Homo sapiens) (UniProt O00238); assay: Binding affinity to wild-type human partial length BMPR1B (D178 to L502 residues) expressed in mammalian expression system assessed as residual binding level at 10 uM by Kinomescan method relative to control
[6] = biological target: Calcium/calmodulin-dependent protein kinase kinase 2 (Homo sapiens) (UniProt Q96RR4); assay: Binding affinity to wild-type human partial length CAMKK2 (D65 to V471 residues) expressed in bacterial expression system assessed as residual binding level at 10 uM by Kinomescan method relative to control
Sequence of Calcium/calmodulin-dependent protein kinase kinase 2 (Homo sapiens) (Q96RR4 2-588 limits assumed): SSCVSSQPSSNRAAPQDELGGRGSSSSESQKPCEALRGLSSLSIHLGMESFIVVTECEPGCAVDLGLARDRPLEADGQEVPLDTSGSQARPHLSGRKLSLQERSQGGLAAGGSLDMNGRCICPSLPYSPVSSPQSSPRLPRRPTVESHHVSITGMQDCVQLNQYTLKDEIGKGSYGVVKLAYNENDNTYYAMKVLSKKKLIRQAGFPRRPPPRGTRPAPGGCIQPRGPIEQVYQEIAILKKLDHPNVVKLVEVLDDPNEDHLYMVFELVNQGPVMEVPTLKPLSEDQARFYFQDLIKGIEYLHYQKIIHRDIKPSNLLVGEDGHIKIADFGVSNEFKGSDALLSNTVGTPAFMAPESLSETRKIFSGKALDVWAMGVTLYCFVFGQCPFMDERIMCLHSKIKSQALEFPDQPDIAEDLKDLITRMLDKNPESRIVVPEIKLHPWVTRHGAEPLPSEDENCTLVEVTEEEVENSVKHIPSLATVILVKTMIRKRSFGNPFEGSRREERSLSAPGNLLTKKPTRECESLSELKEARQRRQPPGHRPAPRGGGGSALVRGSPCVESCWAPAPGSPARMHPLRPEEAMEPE

[7] = biological target: Cyclin-dependent kinase-like 5 (Homo sapiens) (UniProt O76039); assay: Binding affinity to wild-type human partial length CDKL5 (M1 to S337 residues) expressed in mammalian expression system assessed as residual binding level at 10 uM by Kinomescan method relative to control
[8] = biological target: Epithelial discoidin domain-containing receptor 1 (Homo sapiens) (UniProt Q08345); assay: Binding affinity to wild-type human partial length DDR1 (R565 to V876 residues) expressed in bacterial expression system assessed as residual binding level at 10 uM by Kinomescan method relative to control
[9] = test system: Receptor-type tyrosine-protein kinase FLT3 (Homo sapiens), P36888 [R834Q]; assay: Binding affinity to human partial length FLT3 R834Q mutant (V592 to Y969 residues) expressed in mammalian expression system assessed as residual binding level at 10 uM by Kinomescan method relative to control
[10] = biological target: Glycogen synthase kinase-3 beta (Homo sapiens) (UniProt P49841); assay: Binding affinity to wild-type human full length GSK3B (M1 to T433 residues) expressed in mammalian expression system assessed as residual binding level at 10 uM by Kinomescan method relative to control
Sequence of Glycogen synthase kinase-3 beta (Homo sapiens) (P49841 whole entry, looked up, the tested form may be a part): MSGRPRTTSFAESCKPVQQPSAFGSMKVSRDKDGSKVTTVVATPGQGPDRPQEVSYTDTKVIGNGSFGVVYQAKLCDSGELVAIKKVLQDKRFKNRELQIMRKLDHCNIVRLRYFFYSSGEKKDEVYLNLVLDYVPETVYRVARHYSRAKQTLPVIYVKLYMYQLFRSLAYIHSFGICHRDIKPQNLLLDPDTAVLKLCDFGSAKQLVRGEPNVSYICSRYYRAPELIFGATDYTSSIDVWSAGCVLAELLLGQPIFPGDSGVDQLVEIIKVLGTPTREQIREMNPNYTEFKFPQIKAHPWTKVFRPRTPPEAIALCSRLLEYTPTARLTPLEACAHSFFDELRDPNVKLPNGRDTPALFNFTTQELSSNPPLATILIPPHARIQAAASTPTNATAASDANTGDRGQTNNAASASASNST

[11] = biological target: Serine/threonine-protein kinase ICK (Homo sapiens) (UniProt Q9UPZ9); assay: Binding affinity to wild-type human partial length ICK (M1 to P314 residues) expressed in mammalian expression system assessed as residual binding level at 10 uM by Kinomescan method relative to control
[12] = biological target: Mitogen-activated protein kinase 8 (Homo sapiens) (UniProt P45983); assay: Binding affinity to wild-type human full length JNK1 (M1 to Q384 residues) expressed in mammalian expression system assessed as residual binding level at 10 uM by Kinomescan method relative to control
[13] = test system: Mast/stem cell growth factor receptor Kit (Homo sapiens), P10721 [UNDEFINED MUTATION]; assay: Binding affinity to human partial length KIT V559D/V654 double mutant (Y545 to D952 residues) expressed in bacterial expression system assessed as residual binding level at 10 uM by Kinomescan method relative to control
[14] = biological target: Myosin light chain kinase (Homo sapiens) (UniProt Q32MK0); assay: Binding affinity to wild-type human partial length MLCK (D488 to K800 residues) expressed in bacterial expression system assessed as residual binding level at 10 uM by Kinomescan method relative to control
[15] = biological target: Macrophage-stimulating protein receptor (Homo sapiens) (UniProt Q04912); assay: Binding affinity to wild-type human partial length MST1R (I1057 to L1363 residues) expressed in bacterial expression system assessed as residual binding level at 10 uM by Kinomescan method relative to control
Sequence of Macrophage-stimulating protein receptor (Homo sapiens) (Q04912 25-304 limits assumed): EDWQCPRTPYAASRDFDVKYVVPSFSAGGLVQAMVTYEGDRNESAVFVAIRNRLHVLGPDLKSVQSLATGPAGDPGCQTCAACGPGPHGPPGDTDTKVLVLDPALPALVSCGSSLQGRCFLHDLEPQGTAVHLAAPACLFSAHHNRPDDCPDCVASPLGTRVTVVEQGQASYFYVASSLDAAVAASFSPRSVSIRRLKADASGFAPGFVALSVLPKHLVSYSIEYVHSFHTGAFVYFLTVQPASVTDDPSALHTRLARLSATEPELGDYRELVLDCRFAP
Sequence of Macrophage-stimulating protein receptor (Homo sapiens) (Q04912 310-1400 limits assumed): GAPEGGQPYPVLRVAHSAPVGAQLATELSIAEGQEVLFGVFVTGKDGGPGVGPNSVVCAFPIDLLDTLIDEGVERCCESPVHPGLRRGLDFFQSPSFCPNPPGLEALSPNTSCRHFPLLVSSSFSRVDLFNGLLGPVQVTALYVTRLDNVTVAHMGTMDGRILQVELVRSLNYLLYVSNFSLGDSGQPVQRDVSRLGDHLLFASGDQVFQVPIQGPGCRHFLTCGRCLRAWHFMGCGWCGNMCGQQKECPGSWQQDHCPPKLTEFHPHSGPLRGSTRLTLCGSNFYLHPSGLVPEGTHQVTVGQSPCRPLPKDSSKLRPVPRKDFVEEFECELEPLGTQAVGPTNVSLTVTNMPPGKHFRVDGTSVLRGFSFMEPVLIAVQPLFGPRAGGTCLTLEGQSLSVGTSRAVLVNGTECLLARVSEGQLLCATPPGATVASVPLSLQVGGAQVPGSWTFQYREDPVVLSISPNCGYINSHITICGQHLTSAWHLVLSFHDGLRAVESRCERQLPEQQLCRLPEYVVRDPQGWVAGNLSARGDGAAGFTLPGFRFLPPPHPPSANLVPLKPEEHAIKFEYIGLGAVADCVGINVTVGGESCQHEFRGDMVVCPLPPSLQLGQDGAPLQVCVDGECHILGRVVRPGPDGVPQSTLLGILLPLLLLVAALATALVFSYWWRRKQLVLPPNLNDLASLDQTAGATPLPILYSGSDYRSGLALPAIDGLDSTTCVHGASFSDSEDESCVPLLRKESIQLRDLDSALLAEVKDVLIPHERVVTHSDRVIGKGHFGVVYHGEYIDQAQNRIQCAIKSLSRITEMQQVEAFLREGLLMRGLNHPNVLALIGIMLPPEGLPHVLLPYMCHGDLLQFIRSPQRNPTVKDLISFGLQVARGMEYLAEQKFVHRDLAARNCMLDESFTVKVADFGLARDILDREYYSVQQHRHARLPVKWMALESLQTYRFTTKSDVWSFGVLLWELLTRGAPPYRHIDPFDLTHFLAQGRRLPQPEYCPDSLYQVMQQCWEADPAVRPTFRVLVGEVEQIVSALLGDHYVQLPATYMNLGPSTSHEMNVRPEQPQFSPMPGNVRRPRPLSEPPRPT

[16] = biological target: Myosin light chain kinase 2, skeletal/cardiac muscle (Homo sapiens) (UniProt Q9H1R3); assay: Binding affinity to wild-type human partial length MYLK2 (D258 to K570 residues) expressed in bacterial expression system assessed as residual binding level at 10 uM by Kinomescan method relative to control
[17] = biological target: Cyclin-dependent kinase 2 homolog (Plasmodium falciparum (isolate 3D7)) (UniProt P61075); assay: Binding affinity to wild-type Plasmodium falciparum full length PK5 (M1 to N288 residues) expressed in mammalian expression system assessed as residual binding level at 10 uM by Kinomescan method relative to control
[18] = biological target: Membrane-associated tyrosine- and threonine-specific cdc2-inhibitory kinase (Homo sapiens) (UniProt Q99640); assay: Binding affinity to wild-type human partial length PKMYT1 (A88 to G366 residues) expressed in bacterial expression system assessed as residual binding level at 10 uM by Kinomescan method relative to control
Sequence of Membrane-associated tyrosine- and threonine-specific cdc2-inhibitory kinase (Homo sapiens) (Q99640 whole entry, the tested form may be a part): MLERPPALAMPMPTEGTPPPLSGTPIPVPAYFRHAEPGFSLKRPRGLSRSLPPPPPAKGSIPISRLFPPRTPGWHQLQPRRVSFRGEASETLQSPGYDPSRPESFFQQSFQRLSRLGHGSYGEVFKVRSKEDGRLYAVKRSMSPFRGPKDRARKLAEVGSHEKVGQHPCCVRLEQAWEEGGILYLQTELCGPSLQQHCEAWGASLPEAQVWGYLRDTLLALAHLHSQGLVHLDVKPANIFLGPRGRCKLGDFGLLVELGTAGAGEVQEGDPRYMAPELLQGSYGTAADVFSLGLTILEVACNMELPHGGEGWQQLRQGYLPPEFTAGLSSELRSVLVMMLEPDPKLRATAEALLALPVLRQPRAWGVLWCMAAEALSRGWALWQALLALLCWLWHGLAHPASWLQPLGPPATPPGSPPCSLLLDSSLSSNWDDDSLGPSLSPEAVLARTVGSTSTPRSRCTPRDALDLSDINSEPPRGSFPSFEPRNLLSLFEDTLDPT

[19] = biological target: Serine/threonine-protein kinase PLK4 (Homo sapiens) (UniProt O00444); assay: Binding affinity to wild-type human partial length PLK4 (M1 to S273 residues) expressed in mammalian expression system assessed as residual binding level at 10 uM by Kinomescan method relative to control
[20] = biological target: cAMP-dependent protein kinase catalytic subunit PRKX (Homo sapiens) (UniProt P51817); assay: Binding affinity to wild-type human partial length PRKX (M1 to F358 residues) expressed in bacterial expression system assessed as residual binding level at 10 uM by Kinomescan method relative to control
[21] = biological target: Serine/threonine-protein kinase PRP4 homolog (Homo sapiens) (UniProt Q13523); assay: Binding affinity to wild-type human partial length PRP4 (D657 to I1007 residues) expressed in bacterial expression system assessed as residual binding level at 10 uM by Kinomescan method relative to control
Sequence of Serine/threonine-protein kinase PRP4 homolog (Homo sapiens) (Q13523 whole entry, the tested form may be a part): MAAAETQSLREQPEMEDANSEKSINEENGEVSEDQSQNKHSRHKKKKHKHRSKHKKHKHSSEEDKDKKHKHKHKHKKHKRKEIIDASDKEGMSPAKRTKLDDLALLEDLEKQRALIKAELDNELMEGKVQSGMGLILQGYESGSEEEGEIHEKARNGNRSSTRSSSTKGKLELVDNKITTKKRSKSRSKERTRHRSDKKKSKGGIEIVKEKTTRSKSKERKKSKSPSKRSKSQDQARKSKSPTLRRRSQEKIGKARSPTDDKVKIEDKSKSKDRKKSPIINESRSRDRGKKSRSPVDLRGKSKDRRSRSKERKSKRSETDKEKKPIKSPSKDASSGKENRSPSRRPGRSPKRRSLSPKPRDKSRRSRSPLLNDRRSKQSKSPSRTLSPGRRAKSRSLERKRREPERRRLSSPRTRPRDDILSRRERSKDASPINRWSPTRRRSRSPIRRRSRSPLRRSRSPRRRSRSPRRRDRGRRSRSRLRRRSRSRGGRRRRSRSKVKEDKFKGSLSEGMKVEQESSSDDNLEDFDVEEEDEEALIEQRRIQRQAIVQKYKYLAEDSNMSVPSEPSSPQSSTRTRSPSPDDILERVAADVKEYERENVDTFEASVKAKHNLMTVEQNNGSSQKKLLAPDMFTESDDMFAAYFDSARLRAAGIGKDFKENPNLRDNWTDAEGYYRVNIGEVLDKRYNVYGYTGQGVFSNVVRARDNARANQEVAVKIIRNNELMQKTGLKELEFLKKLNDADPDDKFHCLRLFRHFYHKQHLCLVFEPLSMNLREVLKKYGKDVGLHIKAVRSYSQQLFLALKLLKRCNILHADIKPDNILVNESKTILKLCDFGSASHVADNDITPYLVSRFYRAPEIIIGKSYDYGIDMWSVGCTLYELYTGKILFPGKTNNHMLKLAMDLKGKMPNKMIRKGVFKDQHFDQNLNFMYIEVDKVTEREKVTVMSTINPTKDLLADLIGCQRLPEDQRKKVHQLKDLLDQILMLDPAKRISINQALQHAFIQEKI

[22] = biological target: RAF proto-oncogene serine/threonine-protein kinase (Homo sapiens) (UniProt P04049); assay: Binding affinity to wild-type human partial length RAF1 (I330 to T640 residues) expressed in bacterial expression system assessed as residual binding level at 10 uM by Kinomescan method relative to control
Sequence of RAF proto-oncogene serine/threonine-protein kinase (Homo sapiens) (P04049 whole entry, the tested form may be a part): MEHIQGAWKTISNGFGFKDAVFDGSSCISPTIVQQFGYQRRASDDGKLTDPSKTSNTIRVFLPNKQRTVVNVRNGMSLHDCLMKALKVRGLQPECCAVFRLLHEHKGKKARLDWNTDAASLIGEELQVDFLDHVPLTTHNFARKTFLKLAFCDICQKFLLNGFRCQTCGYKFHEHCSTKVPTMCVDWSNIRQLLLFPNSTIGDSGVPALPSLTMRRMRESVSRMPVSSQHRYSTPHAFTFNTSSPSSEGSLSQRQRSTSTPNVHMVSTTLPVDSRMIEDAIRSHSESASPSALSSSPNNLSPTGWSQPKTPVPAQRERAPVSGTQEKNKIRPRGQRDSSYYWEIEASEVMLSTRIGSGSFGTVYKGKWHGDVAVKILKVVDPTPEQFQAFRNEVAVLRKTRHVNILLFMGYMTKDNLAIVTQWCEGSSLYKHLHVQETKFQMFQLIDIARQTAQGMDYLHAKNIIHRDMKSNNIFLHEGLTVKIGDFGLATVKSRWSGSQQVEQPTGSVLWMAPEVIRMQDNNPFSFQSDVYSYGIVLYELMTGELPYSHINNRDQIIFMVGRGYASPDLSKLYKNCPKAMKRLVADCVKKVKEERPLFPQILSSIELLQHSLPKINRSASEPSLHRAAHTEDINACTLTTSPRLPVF

[23] = biological target: Proto-oncogene tyrosine-protein kinase ROS (Homo sapiens) (UniProt P08922); assay: Binding affinity to wild-type human partial length ROS1 (A1921 to N2240 residues) expressed in bacterial expression system assessed as residual binding level at 10 uM by Kinomescan method relative to control
[24] = biological target: Ribosomal protein S6 kinase alpha-2 (Homo sapiens) (UniProt Q15349); assay: Binding affinity to wild-type human partial length N- terminal RSK3 kinase domain 1 (M1 to Q385 residues) expressed in bacterial expression system assessed as residual binding level at 10 uM by Kinomescan method relative to control

Question: For `CC(C)N1C(=O)C(NCCCN(C)C)=C(c2cn(C)c3ccccc23)C1=O.Cl`, which Activity [1] is on record?
Answer: 84%

Question: What about the Activity [2] of the same molecule?
Answer: 92%

Question: What about the Activity [3] of the same molecule?
Answer: 95%

Question: What about the Activity [4] of the same molecule?
Answer: 90%

Question: What about the Activity [5] of the same molecule?
Answer: 78%

Question: What about the Activity [6] of the same molecule?
Answer: 69%

Question: What about the Activity [7] of the same molecule?
Answer: 96%

Question: And the Activity [8]?
Answer: 100%

Question: What about the Activity [9] of the same molecule?
Answer: 100%

Question: And the Activity [10]?
Answer: 84%

Question: What about the Activity [11] of the same molecule?
Answer: 81%

Question: And the Activity [12]?
Answer: 91%

Question: And the Activity [13]?
Answer: 95%

Question: What about the Activity [14] of the same molecule?
Answer: 89%

Question: And the Activity [15]?
Answer: 100%

Question: And the Activity [16]?
Answer: 100%

Question: And the Activity [17]?
Answer: 87%

Question: What about the Activity [18] of the same molecule?
Answer: 88%

Question: What about the Activity [19] of the same molecule?
Answer: 97%

Question: What about the Activity [20] of the same molecule?
Answer: 88%

Question: And the Activity [21]?
Answer: 86%

Question: And the Activity [22]?
Answer: 100%

Question: What about the Activity [23] of the same molecule?
Answer: 87%

Question: And the Activity [24]?
Answer: 100%
